Laboratory results as given in EP3338554A1, “COMPOSITION AND METHOD FOR PREVENTING DEPOSIT FORMATION IN A DRIP IRRIGATION SYSTEM” (Evonik Degussa GmbH, priority 2016, dated 2018).

Test: Calcium sulfate precipitation test of NACE standard TM0374-2007 (scale inhibition efficiency)
Method: The efficiency for preventing the precipitation of calcium sulfate from aqueous solution was determined with the calcium sulfate precipitation test of NACE standard TM0374-2007. A composition prepared as in example 1 was added in amounts providing the concentrations of hydrogen peroxide and HEDP in the test brine given in table 4. The hydrogen peroxide and the HEDP used for making the composition were tested for comparison.

| Compound | % inhibition in calcium sulfate precipitation test (HEDP 1 ppm alone) | % inhibition in calcium sulfate precipitation test (HEDP 5 ppm alone) | % inhibition in calcium sulfate precipitation test (HEDP 10 ppm alone) | % inhibition in calcium sulfate precipitation test (hydrogen peroxide 10 ppm alone) | % inhibition in calcium sulfate precipitation test (hydrogen peroxide 50 ppm alone) | % inhibition in calcium sulfate precipitation test (hydrogen peroxide 100 ppm alone) |
| --- | --- | --- | --- | --- | --- | --- |
| CC(O)(P(=O)(O)O)P(=O)(O)O [HEDP, 1-hydroxyethylidene-1,1-diphosphonic acid] | 39% | 77% | 74% | – | – | – |
| OO [Hydrogen peroxide, hydrogen peroxide] | – | – | – | -8% | -9% | -9% |
